Experiments:
[1] = tested on: human hair follicle dermal papilla cells; test: WST-1 cell viability assay; format: cell-based; settings: 48 hours, various concentrations, vs non-treated group
Description: With reference to the documents [Topouzi, H. et al., Exp Dermatol., 26(6), 491-496, 2017; Higgins, C. A. et al., Proc Natl Acad Sci USA., 110(49), 19679-19688, 2013; Higgins, C. A. et al., Exp Dermatol., 19(6), 546-548, 2010], human hair follicle dermal papilla (HDP) cells were incubated in a general 2D monolayer culture manner and in a 3D spheroid culture manner as in the actual human follicle structure.
First, for 2D monolayer culture, human hair follicle dermal papilla cells were cultured in a mesenchymal stem cell medium (MSCM) (Innoprot, Bizakaia, Spain) supplemented with 5% fetal bovine serum (FBS, Thermo Fisher Scientific, Inc., Waltham, MA, USA) in an incubator maintaining the condition of 37° C. and 5% CO2. […]
First, the human hair follicle dermal papilla cells cultured in a 2D or 3D manner in Experimental Example 1 were seeded at a density of 1×10^4 cells/well into 96-well plates (96-well round-bottom ultra-low attachment microplates) and incubated at 37° C. for 24 hours in a 5% CO2 atmosphere. […] Then, 10 μl of the WST-1 solution was added to the culture and incubated for 30 min before reading absorbance at 450 nm on an iMark microplate reader (Bio-Rad Laboratories, Hercules, CA, USA). […]

[2] = tested on: human hair follicle dermal papilla cells; test: Formation and size of 3D spheroids (phase-contrast microscope); format: cell-based; settings: 3D culture, 48 hours
Description: (§1) Next, for 3D spheroid culture, human hair follicle dermal papilla cells were cultured in a plate (round-bottom ultra-low attachment microplate, Corning, NY, USA) containing the stem cell medium supplemented with 5% fetal bovine serum at 37° C. under a 5% CO2 atmosphere.
Referring to the document [Higgins, C. A. et al., Exp Dermatol., 19(6), 546-548, 2010; Higgins, C. A. et al., Proc Natl Acad Sci USA., 110(49), 19679-19688, 2013; Kang, B. M. et al., J Invest Dermatol., 132(1), 237-239, 2012], a 3D spheroid culture of human hair follicle dermal papilla cells is reported to induce better formation and growth of hair follicles, compared to a 2D culture of human hair follicle dermal papilla cells. In addition, the document [Whiting, D. A., J Am Acad Dermatol., 45(3 Suppl), S81-S86, 2001; de Lacharriere, O. et al., Arch Dermatol., 137(5), 641-646, 2001; Jahoda, C. A., Exp Dermatol., 7(5), 235-248, 1998] reports that a decrease in the size of dermal papilla may cause follicle miniaturization in patients with hair loss. The Examples of the present disclosure were examined for effects of preventing hair loss and promoting hair growth by monitoring the formation and size of 3D spheroids after application to the 3D spheroid culture of Experimental Example 1.
First, the formation and size change of 3D spheroids of human hair follicle dermal papilla cells were observed. In this regard, the 3D spheroid culture of cells in Experimental Example 1 was seeded at a density of 5×10^4 cells/well into 96-well plates (96-well round-bottom ultra-low attachment microplates) and incubated for 48 hours with predetermined concentrations of Examples 1 and 2 and Comparative Example 1 (ginsenoside Rg2). Thereafter, the human dermal papilla cells were observed under a phase-contrast microscope to see whether the cells formed 3D spheroids and to measure sizes of the spheroids.

TCF/LEF = TCF/LEF luciferase reporter assay (TOPFlash/FOPFlash), Wnt/β-catenin signaling; format: cell-based; settings: HEK293 cells, 20 μg/ml, 24 hours, vs non-treated group (control)
Description: HEK293 cells were cultured in DMEM (Dulbecco's Modified Eagle's Medium, Thermo Fisher Scientific, Inc.) supplemented with 10% fetal bovine serum, penicillin (50 U/ml), and streptomycin (50 U/ml) under the condition of 37° C. and 5% CO2.
Whether the Wnt/β-catenin signaling is activated or not was determined using a TCF/LEF luciferase reporter plasmid (TOPFlash, Merck-Millipore, Darmstadt, Germany) designed to specifically react with the transcription factor TCF/LEF activated by β-catenin, and a reporter plasmid having a mutation caused in the promoter thereof (FOPFlash, Merck-Millipore, Darmstadt, Germany).
First, the TCF/LEF luciferase reporter plasmid (TOPFlash (TCF/LEF-wt) or FOPFlash (TCF/LEF-mut)) and a β-galactosidase plasmid were transfected into the HEK293 cells cultured in Experimental Example 1 with the aid of Lipofectamine 3000 (Invitrogen, Thermo Fisher Scientific, Inc.). After being incubated with 20 μg/ml of Example 1 for 24 hours, the transfected cells were lysed with a passive lysis buffer (Promega, Madison, WI, USA). The cell lysate thus formed was added with D-luciferin and measured for luciferase activity by Glomax 96 Microplate Luminometer (Turner Biosystem, Sunnyvale, CA, USA). β-Galactosidase activity was measured with the aid of Luminescent β-galactosidase Detection Kit II (Clontech Laboratories Inc., USA). […]

LEF1 = test: Real-time PCR mRNA expression, Wnt/β-catenin signaling; format: cell-based, human; settings: 3D spheroid culture, 20 μg/ml, 48 hours, relative to β-actin, vs non-treated group (control)
Description: as §1
(§2) Next, in order to confirm the luciferase activity results, mRNA analysis was performed on β-catenin, WNT5A, and LEF1, which are involved in the Wnt/β-catenin signaling. First, a 3D spheroid culture of human hair follicle dermal papilla cells was treated with Example 1 (20 μg/ml) for 48 hours, followed by RNA extraction with a TRIzol solution (Invitrogen, Thermo Fisher Scientific). From 2 μg of the RNA extract, cDNA was synthesized in the presence of M-MLV reverse transcriptase. The synthesized cDNA was mixed with HOT FIREPol EvaGreen qPCR Mix Plus solution (Solis BioDyne, Tartu, Estonia) and each of primer sets for the Wnt/β-catenin target genes β-catenin, WNT5A, and LEF1 and subjected to Step OnePlus Real-Time PCR (Applied Biosystems; Thermo Fisher Scientific). Relative to the expression of β-actin housekeeping gene, an expression level of each gene was derived. Analysis results of mRNA expressions are depicted in FIGS. 5B to 5D.

WNT5A = test: as above; format: cell-based, human; settings: 3D spheroid culture, 20 μg/ml, 48 hours, relative to β-actin, vs non-treated group (control)
Description: as §1, §2

β-catenin = test: as above; format: cell-based, human; settings: 3D spheroid culture, 20 μg/ml, 48 hours, relative to β-actin, vs non-treated group (control)
Description: as §1, §2

ALPL = test: Real-time PCR mRNA expression, dermal papilla signature gene; format: cell-based, human; settings: 3D spheroid culture, vs non-treated control
Description: as §1, §2
(§3) After being applied to the 3D spheroid culture of human hair follicle dermal papilla cells in Experimental Example 1, the Examples of the present disclosure were examined for the effect of preventing hair loss and promoting hair growth by monitoring mRNA expression levels of ALPL, VCAN, BMP2, and FGF7.
(§4) The mRNA expression analysis of ALPL, VCAN, BMP2, and FGF7 was carried out in the same manner as for β-catenin, WNT5A, and LEF1 in Experimental Example 3-2, with the exception of using primer sets for ALPL, VCAN, FGF7, and BMP2 instead of those for β-catenin, WNT5A, and LEF1. The mRNA expression analysis data are depicted in FIGS. 6 and 7.

BMP2 = test: as above; format: cell-based, human; settings: 3D spheroid culture, vs non-treated control
Description: as §1, §2, §3, §4

FGF7 = test: as above; format: cell-based, human; settings: 3D spheroid culture, vs non-treated control
Description: as §1, §2, §3, §4

VCAN = test: as above; format: cell-based, human; settings: 3D spheroid culture, vs non-treated control
Description: as §1, §2, §3, §4

Question: Which results are given for `CC(C)=CC/C=C(/C)[C@H]1CC[C@]2(C)[C@@H]1[C@H](O)C[C@@H]1[C@@]3(C)CC[C@H](O)C(C)(C)[C@@H]3[C@@H](O[C@@H]3O[C@H](CO)[C@@H](O)[C@H](O)[C@H]3O[C@@H]3O[C@@H](C)[C@H](O)[C@@H](O)[C@H]3O)C[C@]12C` [Example 1, ginsenoside Rg4]?
Answer: cell viability ([1]; 2D (monolayer) cultured cells): the same cell viability; cell viability ([1]; 3D (spheroid) cultured cells): the same cell viability; number of 3D spheroids, increase compared to ginsenoside Rg2 of Comparative Example 1 ([2]; FIG. 3C): two to three folds; size of 3D spheroids, increase compared to ginsenoside Rg2 of Comparative Example 1 ([2]; FIG. 3C): two to three folds; number of 3D spheroids ([2]; vs non-treated group): increase the number and size of 3D spheroids in a concentration-dependent manner; size of 3D spheroids ([2]; vs non-treated group): increase the number and size of 3D spheroids in a concentration-dependent manner; activation of TCF/LEF (luciferase activity) (TCF/LEF): two folds or more; mRNA expression level of LEF1 (LEF1): two folds or more; mRNA expression level of WNT5A (WNT5A): two folds or more; mRNA expression level of β-catenin (β-catenin): two folds or more; mRNA expression level of ALPL (ALPL): increased; mRNA expression level of BMP2 (BMP2): increased; mRNA expression level of FGF7 (FGF7): increased; mRNA expression level of VCAN (VCAN): increased

— patent publication US12414976B2, “Pharmaceutical composition for preventing hair loss or promoting hair growth, comprising ginsenoside RG4 or mixture (Rgx 365) of ginsenosides Rg2, Rg4, Rg6, and Rh1 as active ingredient” (AREZ CO., LTD., priority 2019, dated 2025)
